Reference: EP0987023A1, “Transition metal complexes of non steroidal anti-inflammatory drugs” (PANACEA BIOTEC LIMITED, priority 1998, dated 2000)
Like-named read-outs stand apart in the source and are kept apart here.

Legend:
[1] = system: Cyclooxygenase 2/Cyclooxygenase 1; settings: cited from earlier work
[2] = collected values of NSAIDs; cited from earlier work
[3] = collected values of NSAIDs; cited from earlier work; remark: listed apart in the source
[4] = system: Carageenan - induced rat paw edema; experiment: Carageenan-induced rat paw edema (anti-inflammatory activity); format: in vivo; settings: in words, compared to parent drug
[5] = in words; pre-treatment; Navarro et al. 1994; cited from earlier work
[6] = IC50 (µg/ml) of COX2 divided by IC50 for COX1, values below 1 indicate selectivity for COX2, from Drugs of Today Vol. 32 Suppl. D 1996 p. 5

## CC(C(=O)O)c1ccc2c(c1)[nH]c1ccc(Cl)cc12 (stereo not drawn) [Carprofen]
[1]
  Cyclooxygenase 2/Cyclooxygenase 1 ratio: 1

## O=C(c1ccccc1)c1cccc(NS(=O)(=O)C(F)F)c1 [Diflumidone]
[2]
  ED50: 38.0 mg/kg
[3]
  LD50: 750 mg/kg
  Therapeutic Index: 20

## CC(C(=O)O)c1ccc(-c2ccccc2)c(F)c1 (stereo not drawn) [Flurbiprofen]
[1]
  Cyclooxygenase 2/Cyclooxygenase 1 ratio: 1.3

## Cc1c(Cl)cccc1Nc1ccccc1C(=O)O [Tolfenamic acid]
[1]; [6]
  Cyclooxygenase 2/Cyclooxygenase 1 ratio: 16.7

## COc1ccc2cc([C@H](C)C(=O)O)ccc2c1 [Naproxen, (+) -2-(6-Methoxy-2-haphthyl) propionic acid]
[2]
  ED50: 2.10 mg/kg

## CN1C(C(=O)Nc2ccccn2)=C(O)c2ccccc2S1(=O)=O [Piroxicam]
[1]
  Cyclooxygenase 2/Cyclooxygenase 1 ratio: 250

## CC(=O)Oc1ccccc1C(=O)O [Acetylsalicylic acid]
[2]
  ED50: 135.0 mg/kg
[1]; [6]
  Cyclooxygenase 2/Cyclooxygenase 1 ratio: 166
[3]
  LD50: 1520 mg/kg
  Therapeutic Index: 14

## CC1=C(CC(=O)O)c2cc(F)ccc2/C1=C\c1ccc([S+](C)[O-])cc1 (stereo not drawn) [Sulindac]
[1]; [6]
  Cyclooxygenase 2/Cyclooxygenase 1 ratio: 100

## CS(=O)(=O)Nc1ccc([N+](=O)[O-])cc1Oc1ccccc1 [Nimesulide]
[2]
  ED50: 1.25 mg/kg

## O=C([O-])c1ccccc1O.[Na+] [Sodium salicylate]
[1]; [6]
  Cyclooxygenase 2/Cyclooxygenase 1 ratio: 2.8

## CC(C)Cc1ccc(C(C)C(=O)O)cc1 (stereo not drawn) [Ibuprofen]
[2]
  ED50: 13.5 mg/kg
[3]
  LD50: 923 mg/kg

## CC(=O)Nc1ccc(O)cc1 [Paracetamol]
[1]; [6]
  Cyclooxygenase 2/Cyclooxygenase 1 ratio: 7.4

## O=C(O)c1ccccc1Nc1cccc(C(F)(F)F)c1 [Flufenamic acid]
[2]
  ED50: 14.7 mg/kg
[3]
  LD50: 249 mg/kg
  Therapeutic Index: 17

## COc1ccc2c(c1)c(CC(=O)O)c(C)n2C(=O)c1ccc(Cl)cc1 [Indomethacin]
[2]
  ED50: 2.95 mg/kg
[3]
  LD50: 210 mg/kg

## O=C([O-])Cc1ccccc1Nc1c(Cl)cccc1Cl.O=C([O-])Cc1ccccc1Nc1c(Cl)cccc1Cl.[Zn+2] [Diclofenac-Zinc]
[4]; listed as Diclofenac-Zinc complex
  anti-inflammatory activity: much more than the parent drug
[4]; listed as Zinc-diclofenac complex
  anti-inflammatory activity: more potent anti-inflammatory activity than diclofenac

## CC(=O)NCCCCCC(=O)[O-].CC(=O)NCCCCCC(=O)[O-].[Zn+2] [Zinc acexamate]
[5]
  overall Severity of lessions induced by NSAIDS: significantly decreased

## Cc1ccc(C(=O)c2ccc(CC(=O)O)n2C)cc1 [Tolmetin]
[1]; [6]
  Cyclooxygenase 2/Cyclooxygenase 1 ratio: 175
